Results from US11753408B2, “Compounds and method for blocking transmission of malarial parasite” (The United States of America, as represented by the …, priority 2016, dated 2023).
Like-named read-outs stand apart in the source and are kept apart here.

Key:
[1] = Microsomal stability (rat); format: in vitro ADME; conditions: rat microsomes
PAMPA permeability = format: in vitro ADME; conditions: PAMPA
Solubility at pH 7.4 = format: physicochemical
[2] = test system: Asexual parasites of P. falciparum strain 3D7; assay: In vitro drug activity on asexual parasites (SYBR Green assay); format: cell-based, Plasmodium falciparum
Experimental: Cell culture. Asexual parasites of P. falciparum strain 3D7 were cultured as described previously [Trager W, et al., Journal of Parasitology 2005, 91: 484-486], Stage III-V gametocytes were selected and enriched with 3-day treatment with 50 mM N-acetylglucosamine (NAG) and the following Percoll density gradient centrifugation after gametocyte production [Tanaka T Q, et al., Molecular and Biochemical Parasitology, 2011, 111: 160-163], Gametocytes of HB3 and Dd2 strains were produced and then set up for assay in a similar process. HepG2 cells (ATCC, cat. no. 77400) were cultured in 175-cm^2 tissue culture flasks with 30 ml growth medium at 37° C. in a 5% CO2 humidified atmosphere. Growth medium was made with Dulbecco's Modified Eagle Medium with 10% fetal bovine serum (FBS). Growth medium was replaced every other day and cells were passed at 75% confluence.
Asexual parasites of P. falciparum strain 3D7 were cultured as described previously (Trager, W. et al., J. Parasitol. 2005, 91(3): 484-486). Drug activity on asexual stage parasites was tested using a SYBR Green assay as described previously (Eastman, R. T. et al., Antimicrob. Agents Chemother. 2013, 57(1): 425-435; Smilkstein, M. et al., Antimicrob. Agents Chemother. 2004, 48(5): 1803-1806). Briefly, parasites were diluted to 0.5% parasitemia in complete culture medium with 2% hematocrit and drugs diluted in DMSO (≤0.5%) and were loaded into a 96-well plate (200 μl/well). No drug and RBC alone wells were included as positive and background controls, respectively, and each testing condition was examined in duplicated. After 72 h incubation under the standard culture condition and a freeze-thaw lysis step at −80° C. and room temperature, 100 μl/well of lysis buffer containing SYBR Green I was added to the parasite culture and incubated for 30 min at room temperature. The fluorescence of each well was measured at 520 nm following excitation at 490 nm using a FLUOstar Optima™ microplate reader (BMG Labtech).

mTOR = mTOR (Homo sapiens, UniProt P42345); assay: mTOR activity (no method described); format: biochemical
[3] = P. falciparum 3D7 asexual parasites, 72 h, SYBR Green

Row | SMILES | Microsomal Stability (rat) T1/2 [1] [min] | PAMPA Permeability (×10^6 cm/s) (PAMPA permeability) | Sol @ pH 7.4 (ug/mL) (Solubility at pH 7.4) | EC50 [2, 3] [µM] | EC50 [2] [µM] | mTOR (mTOR) [µM] | Sol @ pH 7.4 (Solubility at pH 7.4) [ug/mL]
1 | Cc1cc(N2CCNCC2)c(C#N)cc1-n1c(=O)ccc2cnc3ccc(-c4ccc(Cl)cc4)cc3c21 [Compound 11] | 9.6 | 21 ×10^6 cm/s | <1 | – | – | – | –
2 | CS(=O)(=O)c1ccc(-n2c(=O)ccc3cnc4ccc(-c5ccc(CN6CCCC6)cc5)cc4c32)cc1 [Compound 33] | >30 | 439.2 ×10^6 cm/s | 61 | 0.288 | – | – | –
3 | Cc1cc(S(C)(=O)=O)ccc1-n1c(=O)ccc2cnc3ccc(-c4ccc(Cl)cc4)cc3c21 [Compound 34] | 17.1 | <1 ×10^6 cm/s | <1 | 0.0594 | – | – | –
4 | CS(=O)(=O)c1ccc(-n2c(=O)ccc3cnc4ccc(-c5ccc(Cl)cc5)cc4c32)cc1CN1CCNCC1 [Compound 35] | >30 | 35 ×10^6 cm/s | 4.3 | 0.0758 | – | – | –
5 | CS(=O)(=O)c1ccc(-n2c(=O)ccc3cnc4ccc(-c5ccc(C6(N)CC6)cc5)cc4c32)cc1 [Compound 36] | >30 | 6.5 ×10^6 cm/s | 5.9 | 0.188 | – | – | –
6 | CS(=O)(=O)c1ccc(-n2c(=O)ccc3cnc4ccc(-c5ccc(N)nc5)cc4c32)cc1Cl [Compound 61] | >30 | <1 ×10^6 cm/s | 2.3 | 0.00849 | – | – | –
7 | CN(C)CCc1ccc(-c2ccc3ncc4ccc(=O)n(-c5ccc(S(C)(=O)=O)cc5)c4c3c2)cc1 [Compound 68] | >30 | 148.7 ×10^6 cm/s | 15.7 | 0.131 | – | – | –
8 | Cc1cc(S(C)(=O)=O)ccc1-n1c(=O)ccc2cnc3ccc(-c4ccc(CN(C)C)cc4)cc3c21 [Compound 69] | >30 | 828.3 ×10^6 cm/s | >73 | 1.94 | – | – | –
9 | Cc1cc(S(C)(=O)=O)ccc1-n1c(=O)ccc2cnc3ccc(-c4ccc(N)nc4)cc3c21 [Compound 70] | 31.3 | 148.4 ×10^6 cm/s | 1.2 | 0.0201 | – | – | –
10 | CN(C)CCOc1ccc(-c2ccc3ncc4ccc(=O)n(-c5ccc(S(C)(=O)=O)cc5)c4c3c2)cc1 [Compound 71] | >30 | 133.5 ×10^6 cm/s | 2 | 0.0566 | – | – | –
11 | CN1CCN(CCCNC(=O)c2ccc(-n3c(=O)ccc4cnc5ccc(-c6ccc(Cl)cc6)cc5c43)cc2)CC1 [Compound 262] | 4.3 | – | – | – | 0.214 | 5.399 | 0
12 | O=C(NC1CCN(CCO)CC1)c1ccc(-n2c(=O)ccc3cnc4ccc(-c5ccc(Cl)cc5)cc4c32)cc1 [Compound 263] | >30 | – | – | – | 0.0588 | 1.512 | 0
13 | CN1CCN(CCNC(=O)c2ccc(-n3c(=O)ccc4cnc5ccc(-c6ccc(Cl)cc6)cc5c43)cc2)CC1 [Compound 264] | 4.5 | – | – | – | 0.0566 | 1.321 | 0
14 | O=C(NCCN1CCCCC1)c1ccc(-n2c(=O)ccc3cnc4ccc(-c5ccc(Cl)cc5)cc4c32)cc1 [Compound 265] | 1.9 | – | – | – | 0.132 | 2.064 | 0
15 | CCN(CC)CCCNC(=O)c1ccc(-n2c(=O)ccc3cnc4ccc(-c5ccc(Cl)cc5)cc4c32)cc1 [Compound 266] | 2.8 | – | – | – | 0.0583 | 3.013 | 0
16 | O=C(NCCCN1CCCC1)c1ccc(-n2c(=O)ccc3cnc4ccc(-c5ccc(F)cc5)cc4c32)cc1 [Compound 267] | 8 | – | – | – | 0.0582 | 3.878 | 0
17 | O=C(NCCN1CCOCC1)c1ccc(-n2c(=O)ccc3cnc4ccc(-c5ccc(F)cc5)cc4c32)cc1 [Compound 268] | 2 | – | – | – | 0.211 | 4.985 | 0
18 | NC1(c2ccc(-c3ccc4ncc5ccc(=O)n(-c6ccc(C(=O)N7CCN(CCO)CC7)cc6)c5c4c3)cc2)CC1 [Compound 269] | >30 | – | – | – | 0.39 | 3.874 | 0
19 | CN(C)CCN1CCN(C(=O)c2ccc(-n3c(=O)ccc4cnc5ccc(-c6ccc(C7(N)CC7)cc6)cc5c43)cc2)CC1 [Compound 270] | >30 | – | – | – | 0.348 | 3.254 | 0

The next lines start with the values.

Row | Microsomal Stability (rat) T1/2 [1] [min] | PAMPA Permeability (×10^6 cm/s) (PAMPA permeability) | Sol @ pH 7.4 (ug/mL) (Solubility at pH 7.4) | EC50 [2, 3] [µM] | EC50 [2] [µM] | mTOR (mTOR) [µM] | Sol @ pH 7.4 (Solubility at pH 7.4) [ug/mL] | SMILES
20 | 14 | – | – | – | 0.613 | 16.14 | 0 | N#Cc1cc(-n2c(=O)ccc3cnc4ccc(-c5ccc(Cl)cc5)cc4c32)ccc1C(=O)N1CCOCC1 [Compound 271]
21 | >30 | – | – | – | 0.0189 | 4.164 | <1 | COc1cc(C(=O)NC2CC2)ccc1-n1c(=O)ccc2cnc3ccc(-c4ccc(Cl)c(O)c4)cc3c21 [Compound 273]
22 | 8.4 | – | – | – | 2.05 | 4.586 | 0 | O=C(c1ccc(-n2c(=O)ccc3c(O)nc4ccc(-c5ccc(Cl)cc5)cc4c32)cc1)N1CCOCC1 [Compound 294]
23 | >30 | – | – | – | 0.206 | 50 | <1 | O=C(NC1CC1)c1ccc(-n2c(=O)ccc3cnc4ccc(-c5ccc(F)cc5)cc4c32)cn1 [Compound 301]
24 | 12 | – | – | – | 0.0164 | 1.595 | <1 | O=C(c1ccc(-n2c(=O)ccc3cnc4ccc(-c5ccc(Cl)cc5)cc4c32)cc1)N1CCC(O)CC1 [Compound 302]
25 | >30 | – | – | – | 0.00645 | 0.2376 | 0.7 | O=C(NO)c1ccc(-n2c(=O)ccc3cnc4ccc(-c5ccc(Cl)cc5)cc4c32)cc1 [Compound 303]
26 | >30 | <2.5 ×10^6 cm/s | 13.4 | 0.0209 | – | – | – | NCCCN1Cc2cc(-n3c(=O)ccc4cnc5ccc(-c6ccc(Cl)cc6)cc5c43)ccc2C1=O [Compound 343]
27 | – | 343.6 ×10^6 cm/s | >72.0 | 18.8 | – | – | – | CN(C)Cc1ccc(-c2ccc3ncc4ccc(=O)n(-c5ccc6c(c5)C(=O)N(C)C6=O)c4c3c2)cc1 [Compound 352]
28 | >30 | 4 ×10^6 cm/s | 44.9 | – | – | – | – | CC(N)c1ccc(-c2ccc3ncc4ccc(=O)n(-c5ccc6c(c5)CNC6=O)c4c3c2)cc1 (stereo not shown) [Compound 381]
